Measurements published in patent US20250092054A1, “FUSED PYRIDINES FOR CONTROLLING INVERTEBRATE PESTS” (FMC Corporation, priority 2021, published 2025).
Where two headings read alike, the source gives them in different places.

What was measured:
Type in all cases: in vivo
[1] = system: corn planthopper (Peregrinus maidis (Ashmead)); assay: Test C: control of corn planthopper through contact and/or systemic means; details: 144 h, corn plant post-infested with nymphs, assessed after 6 days; for mortality at 50 ppm: sprayed at 50 ppm
Procedure: (§1) Test compounds were formulated using a solution containing 10% acetone, 90% water and 300 ppm Activator 90® non-ionic surfactant (Loveland Products, Loveland, Colorado, USA). The formulated compounds were applied in 1 mL of liquid through an atomizer nozzle positioned 1.27 cm (0.5 inches) above the top of each test unit. Test compounds were sprayed at the rates indicated, and each test was replicated three times.
For evaluating control of corn planthopper (Peregrinus maidis (Ashmead)) through contact and/or systemic means, the test unit consisted of a small open container with a 3-4-day-old corn (maize) plant inside. White sand was added to the top of the soil prior to application of the test compound.
(§2) Test compounds were formulated and sprayed at 50 and 10 ppm. After spraying of the formulated test compound, the test units were allowed to dry for 1 h before they were post-infested with ˜15-20 nymphs (18-to-21-day-old). A black, screened cap was placed on the top of each test unit, and the test units were held for 6 days in a growth chamber at 22-24° C. and 50-70% relative humidity. Each test unit was then visually assessed for insect mortality.

[2] = system: potato leafhopper (Empoascafabae (Harris)); assay: Test D: control of potato leafhopper through contact and/or systemic means; details: 144 h
Procedure: as §1
For evaluating control of potato leafhopper (Empoascafabae (Harris)) through contact and/or systemic means, the test unit consisted of a small open container with a 5-6-day-old Soleil bean plant (primary leaves emerged) inside. White sand was added to the top of the soil, and one of the primary leaves was excised prior to application of the test compound.
as §2, with “1 hour” for “1 h”, “with 5 potato leafhoppers (18-to-21-day-old adults).” for “with ˜15-20 nymphs (18-to-21-day-old).”, “of the” for “of each”, “at 20°” for “at 22-24°”, “and 70%” for “and 50-70%”

[3] = system: green peach aphid (Myzus persicae (Sulzer)); assay: Test E: control of green peach aphid through contact and/or systemic means; details: 144 h
Procedure: as §1
For evaluating control of green peach aphid (Myzus persicae (Sulzer)) through contact and/or systemic means, the test unit consisted of a small open container with a 12-15-day-old radish plant inside. This was pre-infested by placing on a leaf of the test plant 30-40 aphids on a piece of leaf excised from a culture plant (cut-leaf method). The aphids moved onto the test plant as the leaf piece desiccated. After pre-infestation, the soil of the test unit was covered with a layer of sand.
Test compounds were formulated and sprayed at 50 and 10 ppm. After spraying of the formulated test compound, each test unit was allowed to dry for 1 hour and then a black, screened cap was placed on top. The test units were held for 6 days in a growth chamber at 19-21° C. and 50-70% relative humidity. Each test unit was then visually assessed for insect mortality.

[4] = system: cotton melon aphid (Aphis gossypii (Glover)); assay: Test F: control of cotton melon aphid through contact and/or systemic means; details: 144 h
Procedure: as §1
For evaluating control of cotton melon aphid (Aphis gossypii (Glover)) through contact and/or systemic means, the test unit consisted of a small open container with a 5-day-old okra plant inside. This was pre-infested with 30-40 insects on a piece of leaf according to the cut-leaf method, and the soil of the test unit was covered with a layer of sand.
Test compounds were formulated and sprayed at 50 and 10 ppm. After spraying, the test units were maintained in a growth chamber for 6 days at 19° C. and 70% relative humidity. Each test unit was then visually assessed for insect mortality.

[5] = sprayed at 10 ppm, Soleil bean plant post-infested with adults, assessed after 6 days, read-out: mortality
[6] = sprayed at 50 ppm, Soleil bean plant post-infested with adults, assessed after 6 days, read-out: mortality
[7] = sprayed at 50 ppm, pre-infested radish plant, assessed after 6 days, read-out: mortality
[8] = sprayed at 50 ppm, pre-infested okra plant, assessed after 6 days, read-out: mortality

CC(=O)NCc1ncc(C2=NOC(c3cccc(C(F)(F)F)c3)(C(F)(F)F)C2)c2ccoc12 (stereo not shown) [Compound 1, N-[[4-[4,5-dihydro-5-(trifluoromethyl)-5-[3-(trifluoromethyl)phenyl]-3-isoxazolyl]furo[2,3-c]pyridin-7-yl]methyl]acetamide]
≥ 80%: mortality at 50 ppm [1] | mortality at 10 ppm [2, 5] | mortality at 50 ppm [2, 6] | mortality at 50 ppm [3, 7] | mortality at 50 ppm [4, 8]

CNC(=O)[C@@H](C)NC(=O)c1cnc(C2=NOC(c3cc(Cl)cc(Cl)c3)(C(F)(F)F)C2)c2sccc12 (stereo partly drawn) [Compound 7, 7-[5-(3,5-dichlorophenyl)-4,5-dihydro-5-(trifluoromethyl)-3-isoxazolyl]-N-[(1R)-1-methyl-2-(methylamino)-2-oxo-ethyl]thieno[2,3-c]pyridine-4-carboxamide]
≥ 80%: mortality at 10 ppm [2] | mortality at 50 ppm [2] | mortality at 50 ppm ([3]; in Raphanus sativus) | mortality at 50 ppm [4]

O=C(NC1CC1)c1cnc(C2=NOC(c3cc(Cl)cc(Cl)c3)(C(F)(F)F)C2)c2sccc12 (stereo not shown) [Compound 11, N-cyclopropyl-7-[5-(3,5-dichlorophenyl)-4,5-dihydro-5-(trifluoromethyl)-3-isoxazolyl]thieno[2,3-c]pyridine-4-carboxamide]
≥ 80%: mortality at 10 ppm [2] | mortality at 50 ppm [2]

O=C(NC1CC1)c1ncc(C2=NOC(c3cc(Cl)c(F)c(Cl)c3)(C(F)(F)F)C2)c2ccoc12 (stereo not shown) [Compound 13, N-cyclopropyl-4-[5-(3,5-dichloro-4-fluorophenyl)-4,5-dihydro-5-(trifluoro-methyl)-3-isoxazolyl]furo[2,3-c]pyridine-7-carboxamide]
≥ 80%: mortality at 10 ppm [2] | mortality at 50 ppm [2] | mortality at 50 ppm ([3]; in Raphanus sativus) | mortality at 50 ppm [4]

O=C(NCC1CC1)c1ncc(C2=NOC(c3cc(Cl)c(F)c(Cl)c3)(C(F)(F)F)C2)c2ccoc12 (stereo not shown) [Compound 14, N-(cyclopropylmethyl)-4-[5-(3,5-dichloro-4-fluorophenyl)-4,5-dihydro-5-(trifluoromethyl)-3-isoxazolyl]furo[2,3-c]pyridine-7-carboxamide]
≥ 80%: mortality at 10 ppm [2] | mortality at 50 ppm [2]

CCC(=O)NCc1ncc(C2=NOC(c3cccc(C(F)(F)F)c3)(C(F)(F)F)C2)c2ccoc12 (stereo not shown) [Compound 23, N-[[4-[4,5-dihydro-5-(trifluoromethyl)-5-[3-(trifluoromethyl)phenyl]-3-isoxazolyl]furo[2,3-c]pyridin-7-yl]methyl]propanamid]
≥ 80%: mortality at 10 ppm ([1]; sprayed at 10 ppm) | mortality at 50 ppm [1] | mortality at 10 ppm [2, 5] | mortality at 50 ppm [2, 6] | mortality at 10 ppm ([3]; sprayed at 10 ppm, pre-infested radish plant, assessed after 6 days) | mortality at 50 ppm [3, 7] | mortality at 10 ppm ([4]; sprayed at 10 ppm, pre-infested okra plant, assessed after 6 days) | mortality at 50 ppm [4, 8]

O=C(NC1CC1)c1cnc(C2=NOC(c3cc(Cl)cc(Cl)c3)(C(F)(F)F)C2)c2ccsc12 (stereo not shown) [Compound 26, N-cyclopropyl-4-[5-(3,5-dichlorophenyl)-4,5-dihydro-5-(trifluoromethyl)-3-isoxazolyl]thieno[3,2-c]pyridine-7-carboxamide]
≥ 80%: mortality at 50 ppm [2]

O=C(NC1CSC1)c1cnc(C2=NOC(c3cc(Cl)cc(Cl)c3)(C(F)(F)F)C2)c2ccsc12 (stereo not shown) [Compound 27, 4-[5-(3,5-dichlorophenyl)-4,5-dihydro-5-(trifluoromethyl)-3-isoxazolyl]-N-3-thietanylthieno[3,2-c]pyridine-7-carboxamide]
≥ 80%: mortality at 50 ppm [2]

CNC(=O)[C@@H](C)NC(=O)c1ncc(C2=NOC(c3cc(Cl)c(F)c(Cl)c3)(C(F)(F)F)C2)c2c1CCC2 (stereo partly drawn) [Compound 30, 4-[5-(3,5-dichloro-4-fluorophenyl)-4,5-dihydro-5-(trifluoromethyl)-3-isoxazolyl]-6,7-dihydro-N-[(1R)-1-methyl-2-(methylamino)-2-oxoethyl]-5H-cyclopenta[c]pyridine-1-carboxamide]
≥ 80%: mortality at 50 ppm [4]
